Source: US20250197865A1, “PHARMACEUTICAL COMPOSITION FOR TREATMENT OR PREVENTION OF FIBROTIC DISEASE” (KYUSHU UNIVERSITY, NATIONAL UNIVERSITY CORPORATION, priority 2022, published 2025)

What was measured:
Assay type in all cases: cell-based, mouse
P4HA3 mRNA [1] = test: siRNA treatment of myofibroblasts from carbon tetrachloride-induced fibrotic liver, P4HA3 mRNA by real-time RT-PCR; details: for mRNA expression of P4HA3: myofibroblasts from transiently fibrotic liver, siRNA 3.125 nM, FIG. 9
Description: (§1) The mRNA expression levels of P4HA3 etc. in the examples of the present specification were quantified as follows. The concentration of purified RNA was determined using a microspectrophotometer DS-11 (DeNovix), and reverse transcription to cDNA was performed using a High Capacity cDNA Reverse Transcription Kit (Applied Biosystems). Quantification of mRNA was performed according to the protocol of Luna Universal qPCR Master Mix (New England BioLabs), with DNA polymerase activation at 95° C. for 60 seconds, followed by 45 cycles of cDNA denaturation at 95° C. for 15 seconds and extension at 60° C. for 30 seconds. Analysis was performed by the AACt method using GAPDH as an internal standard. Mouse Cyp7al probe was purchased from Applied Biosystems. Primers and probes for mouse α-smooth muscle actin (α-SMA), CD68, 1α1 collagen (Col1α1), 1α2 collagen (Col1α2), 1α3 collagen (Col1α3), 6α1 collagen (Col6α1), 8α1 collagen (Co81α1), GAPDH (glyceraldehyde-3-phosphate dehydrogenase), heat shock protein 47 (Hsp47), prolyl 4-hydroxylase alphal subunit (P4HA1), prolyl 4-hydroxylase alpha2 subunit (P4HA2), and prolyl 4-hydroxylase alpha3 subunit (P4HA3) were purchased from Sigma-Aldrich.
As in Example 3, the effect of suppressing P4HA3 mRNA expression on the mRNA expression of other fibrosis-related factors was examined in cultured myofibroblasts isolated from the liver 4 weeks after the start of carbon tetrachloride administration. The liver was removed from a mouse model of carbon tetrachloride (CCl4)-induced fibrotic livers and divided into small pieces. After that, the liver pieces were washed with washing buffer [25 mM HEPES/[…]/HBSS(-)], and the cell solution containing myofibroblasts was collected by shaking the liver pieces three times for 30 min at 37° C. in . . . digestion buffer [0.1% Collagenase A/15 mM HEPES/HBSS(-)]. After that, blood cell components were removed with Red Blood Cell Lysis Buffer, and the cells were suspended in 10% FBS/1% Penicillin-Streptomycin/DMEM, and then seeded on a culture plate. After 6 hr, the medium was replaced to remove non-adherent cells and debris. After that, the cells were cultured overnight in a CO2 incubator, and non-adherent cells were again removed by washing with PBS, and adherent cells were collected using Accutase. After 20 min of reaction with CD45 antibody labeled with magnetic beads, CD45-positive blood cells were removed by MACS (magnetic cell sorting) using an LS column, and CD45-negative cells were collected as myofibroblasts. After that, the purity of the isolated myofibroblasts was measured using FACS verse, and almost all of the CD45-negative cells after MACS were positive for α-SMA, a myofibroblast marker, and almost no contamination with blood cells was observed. […]

Hsp47 mRNA = test: siRNA treatment of myofibroblasts from carbon tetrachloride-induced fibrotic liver, Hsp47 mRNA by real-time RT-PCR
Description: (§2) The mRNA expression levels of P4HA3 etc. in the examples of the present specification were quantified as follows. The concentration of purified RNA was determined using a microspectrophotometer DS-11 (DeNovix), and reverse transcription to cDNA was performed using a High Capacity cDNA Reverse Transcription Kit (Applied Biosystems). Quantification of mRNA was performed according to the protocol of Luna Universal qPCR Master Mix (New England BioLabs), with DNA polymerase activation at 95° C. for 60 seconds, followed by 45 cycles of cDNA denaturation at 95° C. for 15 seconds and extension at 60° C. for 30 seconds. Analysis was performed by the AACt method using GAPDH as an internal standard. Mouse Cyp7al probe was purchased from Applied Biosystems. […]
As in Example 3, the effect of suppressing P4HA3 mRNA expression on the mRNA expression of other fibrosis-related factors was examined in cultured myofibroblasts isolated from the liver 4 weeks after the start of carbon tetrachloride administration. […] After that, the purity of the isolated myofibroblasts was measured using FACS verse, and almost all of the CD45-negative cells after MACS were positive for α-SMA, a myofibroblast marker, and almost no contamination with blood cells was observed. […]

P4HA3 mRNA [2] = test: P4HA3 knockdown by siRNA in myofibroblasts isolated from the infarcted area, real-time RT-PCR; details: siRNA 3.125 nM, versus si Ctrl, FIG. 4
Description: as §2
(§3) Next, the inventors investigated the effect of suppressing P4HA3 mRNA expression on the mRNA expression of other fibrosis-related factors. […] The quantification of mRNA expression levels of P4HA3, etc. in myofibroblasts after siRNA treatment was performed in the same manner as in Example 2.

[3] = test system: periostin, 1α1 collagen and 3α1 collagen mRNA expression in myofibroblasts; test: Effect of P4HA3 knockdown on fibrosis-related factor mRNA in myofibroblasts isolated from the infarcted area, real-time RT-PCR; details: siRNA 3.125 nM, versus si Ctrl, FIG. 4
Description: as §1
Next, the inventors investigated the effect of suppressing P4HA3 mRNA expression on the mRNA expression of other fibrosis-related factors. Myofibroblasts from the infarcted area of myocardial infarction disease model mice were cultured as described above in Nakaya, M. et al. (2017). Briefly, 3 days after coronary artery ligation, the ventricles of treated mice were digested with PBS containing 0.1% collagenase A (Roche Diagnostics) and 0.1% trypsin (Sigma-Aldrich) at 37° C. with agitation. The cells were placed on plates containing 10% FBS/DMEM overnight, and then the medium was replaced to remove non-adherent cells. The attached cells were cultured for more than 6 days and used as myofibroblasts in the following experiments. […] The quantification of mRNA expression levels of P4HA3, etc. in myofibroblasts after siRNA treatment was performed in the same manner as in Example 2.

[4] = test system: mRNA expression of fibrosis-related factors (collagens, elastin) in myofibroblasts; test: siRNA treatment of myofibroblasts from carbon tetrachloride-induced fibrotic liver, fibrosis-related factor mRNA by real-time RT-PCR; details: for mRNA expression of 1α1 collagen / mRNA expression of other fibrosis-related factors: siRNA 3.125 nM, versus si Ctrl
Description: as §1
As in Example 3, the effect of suppressing P4HA3 mRNA expression on the mRNA expression of other fibrosis-related factors was examined in cultured myofibroblasts isolated from the liver 4 weeks after the start of carbon tetrachloride administration. The liver was removed from a mouse model of carbon tetrachloride (CCl4)-induced fibrotic livers and divided into small pieces. After that, the liver pieces were washed with washing buffer [25 mM HEPES/[…]/HBSS(-)], and the cell solution containing myofibroblasts was collected by shaking the liver pieces three times for 30 min at 37° C. in . . . digestion buffer [0.1% Collagenase A/15 mM HEPES/HBSS(-)]. After that, blood cell components were removed with Red Blood Cell Lysis Buffer, and the cells were suspended in 10% FBS/1% Penicillin-Streptomycin/DMEM, and then seeded on a culture plate. After 6 hr, the medium was replaced to remove non-adherent cells and debris. After that, the cells were cultured overnight in a CO2 incubator, and non-adherent cells were again removed by washing with PBS, and adherent cells were collected using Accutase. After 20 min of reaction with CD45 antibody labeled with magnetic beads, CD45-positive blood cells were removed by MACS (magnetic cell sorting) using an LS column, and CD45-negative cells were collected as myofibroblasts. After that, the purity of the isolated myofibroblasts was measured using FACS verse, and almost all of the CD45-negative cells after MACS were positive for α-SMA, a myofibroblast marker, and almost no contamination with blood cells was observed. Si P4HA3 #1 and si P4HA3 #2, ThermoFisher Scientific catalog numbers 4390771 and 4390771 (Assay ID: s115723 and s115721), were added to the myofibroblast culture at a final concentration of 3.125 nM using Lipofectamine RNAiMAX (Invitrogen). In experiments in which si P4HA3 #2 was not used, such as in Example 3, si P4HA3 #1 was used as “si P4HA3”. For siRNA control experiments, Silencer Select Negative Control no. 1 siRNA (ThermoFisher Scientific, catalog number: 4390843) was used as si Ctrl. The nucleotide sequences of the sense and antisense strands of si P4HA3 #1 are listed in the sequence listing attached hereto as SEQ ID NOs: 1 and 2, respectively. The nucleotide sequences of the sense and antisense strands of si P4HA3 #2 are listed in the sequence listing attached hereto as SEQ ID NOs: 3 and 4, respectively.
Si Hsp47 and si P4HA3 #1 from Example 7 were used as knockdown reagents for Hsp47 and P4HA3, respectively. For si Hsp47, ThermoFisher Scientific catalog number 4390771 (Assay ID: s232335) was used. Separation of cell type fractions from livers collected 4 weeks after the start of carbon tetrachloride administration was performed in the same manner as in Example 6. […]

P4HA3 mRNA [5] = test: P4HA3 knockdown in myofibroblasts from lungs of bleomycin-administered pulmonary fibrosis model mice, real-time RT-PCR; details: FIG. 11-2
Description: as §2, §3
From the bleomycin-administered pulmonary fibrosis model mouse prepared in the same manner as in Example 4, the lungs were removed 7 days after bleomycin administration. […] Quantification of the mRNA expression levels of Cd68, a blood cell marker, 1α1 collagen, a fibrosis-related factor, and P4HA3 was performed in the same manner as in Example 2. […]

[6] = test system: 1α1, 3α1 and 14α1 collagen mRNA expression in myofibroblasts; test: Effect of P4HA3 knockdown on fibrosis-related factor mRNA in myofibroblasts from fibrotic lungs, real-time RT-PCR; details: myofibroblasts from pulmonary fibrosis model mice; versus si Ctrl; FIG. 11-2
[7] = myofibroblasts from transiently fibrotic liver, FIG. 9

| Substance | P4HA3 mRNA expression (P4HA3 mRNA [1]; myofibroblasts from damaged fibrotic liver, FIG. 21-1 B) | effect of suppressing the mRNA expression of each target gene, si Hsp47 compared with si P4HA3 (Hsp47 mRNA; myofibroblasts from CCl4 fibrotic liver, FIGS. 20A and B) | expression of P4HA3 mRNA (P4HA3 mRNA [2]) | expression of 1α1 collagen mRNA [3] | expression of 3α1 collagen mRNA [3] | expression of periostin mRNA [3] | expression of P4HA3 gene (P4HA3 mRNA [1]; myofibroblasts from CCl4 liver fibrosis model, versus si Ctrl, FIG. 25) | mRNA expression of P4HA3 (P4HA3 mRNA [1]; versus si Ctrl) | effect of suppressing the mRNA expression of fibrosis-related factors, si P4HA3 compared with si Hsp47 ([4]; myofibroblasts from CCl4 fibrotic liver, 1α1, 3α1, 8α1, 14α1 collagen, FIG. 20 C to F) | effect of suppressing the mRNA expression of fibrosis-related factors, single siRNAs and combination compared ([4]; myofibroblasts from damaged fibrotic liver, 1α1, 1α2, 3α1, 8α1, 14α1 collagen, elastin, FIGS. 21-1 C, D and 21-2 A to D) | difference in mRNA expression inhibitory effect between si P4HA3 #1 and si P4HA3 #2 for 3α1 collagen and elastin [4, 7] | inhibitory activity for all mRNA expression, si P4HA3 #1 compared with si P4HA3 #2 ([4]; myofibroblasts from transiently fibrotic liver, P4HA3, collagens, elastin, FIG. 9) | mRNA expression of 1α1 collagen [4, 7] | mRNA expression of other fibrosis-related factors [4, 7] | mRNA expression level of P4HA3 reduced to (P4HA3 mRNA [5]; remaining level relative to si Ctrl) | P4HA3 mRNA expression (P4HA3 mRNA [5]; versus si Ctrl) | mRNA expression level of 1α1 collagen [6] | mRNA expression level of 3α1 collagen [6] | mRNA expression level of 14α1 collagen [6] | Hsp47 mRNA expression (Hsp47 mRNA; myofibroblasts from damaged fibrotic liver, FIG. 21-1 A) |
| --- | --- | --- | --- | --- | --- | --- | --- | --- | --- | --- | --- | --- | --- | --- | --- | --- | --- | --- | --- | --- |
| si Hsp47: siRNA for mouse Hsp47, SEQ ID NOs: 12 and 13; ThermoFisher Scientific catalog 4390771, Assay ID s232335 (chain 1 CGGACAGGCCTGTACAACTTT; chain 2 AGTTGTACAGGCCTGTCCGGT; listed as DNA, chemistry not given here) [reference compound] | did not suppress P4HA3 mRNA expression at all | stronger effect | – | – | – | – | – | – | – | – | – | – | – | – | – | – | – | – | – | – |
| si P4HA3 #1: siRNA #1 against mouse P4HA3, sense/antisense SEQ ID NOs: 1 and 2; ThermoFisher Scientific catalog 4390771, Assay ID s115723 (sense CCACGAGTATGGACAGGAATT; antisense TTCCTGTCCATACTCGTGGAT; listed as DNA, chemistry not given here) | – | – | strongly inhibited | strongly inhibited | strongly inhibited | strongly inhibited | almost completely suppressed | inhibited | stronger effect | higher effect | no significant difference | stronger inhibitory activity than si P4HA3 #2 | inhibited | inhibited | less than 5% | very strongly inhibited | reduced to a fraction of their original levels | reduced to a fraction of their original levels | reduced to a fraction of their original levels | slightly suppressed |
| si P4HA3 #2: siRNA #2 against mouse P4HA3, sense/antisense SEQ ID NOs: 3 and 4; ThermoFisher Scientific catalog 4390771, Assay ID s115721 (sense GCTCATAGCTCTCTACCATTT; antisense ATGGTAGAGAGCTATGAGCGG; listed as DNA, chemistry not given here) | – | – | – | – | – | – | – | inhibited | – | – | no significant difference | – | inhibited | inhibited | – | – | – | – | – | – |
